Reference: patent US5874461A, “Use of Nebivolol as an anti-atherogenic” (priority 1995, dated 1999)
Where two headings read alike, the source gives them in different places.

Experiments:
[1] = system: C6 glioma cells; experiment: Fluorescence measurement of intracellular peroxides in C6 glioma cells after glutamate; format: cell-based; conditions: for glutamate-mediated increase in peroxidation: 10 mM glutamate; for Intracellular peroxides (mean ± SD, n): glutamate 10 mM, without or with compound 1 μM
Excerpt: Competitive inhibition by glutamate of cystine uptake in certain cells leads to glutathione depletion and oxidative stress. This oxidative stress model has been described for glial C6 glioma cells (Kato et al., 1992. A mechanism for glutamate toxicity in the C6 glioma cells involving inhibition of cystine uptake leading to glutathione depletion. Neurosci. 48:903-914) and for the neuronal cell line N18RE105 (Murphy et al., 1989. Glutamate toxicity in a neuronal cell line involves inhibition of cystine transport leading to oxidative stress. Neuron 2:1547-1558).
Cell culture: The C6 glioma cell line (American Type Culture Collection, CCL 107) was cultivated in DMEM supplemented with 2 or 4 mM glutamine, 1 mM pyruvate and 5 or 10% heat-inactivated foetal calf serum. Cultures were maintained at 37° C. in an air/5~10% CO2, water saturated atmosphere.
Glutathione depletion and evaluation of drugs as antioxidants: Experiments were carried out with cultures plated at 30,000~50,000 cells/cm^2 in 24-well culture plates (for toxicity and lipid peroxide measurements) or at 136,000 cells/cm^2 in 96-well culture plates (for GSH determination). After 8-24 hr, the cultures were switched to culture medium in the absence or presence of the cystine uptake inhibitor glutamate at a final concentration of 10 mM. In order to test drugs for inhibition of oxidative stress, the drug was added together with glutamate (final concentration of solvent was 0.01% hydroxypropyl-β-cylodextrin, 0.1% DMSO). Intracellular glutathione levels were measured after 6~8 hr, lipid peroxides were measured after 14~20 hr, and toxicity and protection were analysed after 48 hr using an LDH assay according to the method of Bergmeyer and Bernt (UV-assay with pyruvate and NADH. In: Methods of Enzymatic Analysis. 1974. H. U. Bergmeyer, ed. Acad. Press, New York, 2nd Ed., pp 574-579).
Fluorescence measurement of intracellular peroxides: Formation of intracellular peroxides was detected using 6-carboxy-2',7'-dichlorodihydrofluorescin diacetate, di(acetoxymethyl ester) (C-DCDHF, Molecular Probes). C-DCDHF was dissolved in DMSO at a concentration of 10 mM and stored at -70° C. under nitrogen. After exposure of the culture to the glutathione depleting agents, the cells were loaded with 10 μM C-DCDHF for one hour at 37° C. Medium was aspirated off, PBS was added to the cells, and plates were read in a Cytofluor II microplate reader (PerSeptive Biosystems). Excitation and emission wavelength were selected with a 485/530 nm filter pair. The results were expressed in relative fluorescence units/μg protein.

[2] = system: primary embryonic hippocampal cultures; experiment: In vitro neuroprotection against nitric oxide and superoxide radicals (inhibition of LDH release); format: cell-based, rats; conditions: for inhibition at 1 µM / inhibition at 0.1 µM: Rattus norvegicus, read-out: % neuroprotection, mean ± SD; for inhibition at 1 µM: 10^-6 M; for inhibition at 0.1 µM: 10^-7 M; for neuroprotection against DDTC or SNP: one or the other treatment paradigm
Protocol: Primary embryonic hippocampal cultures were prepared essentially as described previously (Pauwels et al., Van Aschouw, H. P., Peeters, L., Moeremans, M., Leysen, J. E. (1992) Chronic treatment with sabeluzole protects cultured rat brain neurons from the neurotoxic effects of excitatory amino acids. Synapse, 12:271-280). Hippocampal formations of rats at embryonic day 17 were dissected and dissociated in 0.05% trypsin, 0.1 mg/ml DNase I in DMEM (Dulbecco Modified Eagle Medium). Heat-inactivated horse serum (HS) was added to a concentration of 4%, and the cells were centrifuged, washed with DMEM, and resuspended in DMEM/Ham's F12 (3:1) containing 10% HS. The cells were plated at a density of 4×10^5 cells/cm^2 in poly L-lysine (0.001%) precoated multiwell-24 plates. On day 1 in culture, the medium was changed to chemically defined CDM-R12 medium (DMEM-HEPES/Ham's F12 (3:1) containing 0.26% bovine serum albumin, 30 nM sodium selenite, 3 nM 3,3',5 triiodo-L-thyronine, 0.35 μM retinol, 0.3 μM retinol acetate, 2.3 μM DL-a-tocopherol, 2.1 μM DL-a-tocopherol acetate, 3.6 μM linolenic acid, 3.6 μM linoleic acid, 0.125% human transferrin, […], 57.7 nM corticosterone, 49 U/I insulin, 0.4 μM biotin, 10 μM L-carnitine, 83 μM D(+)-galactose, 3.3 μM glutathione, 10 μM ethanolamine, 0.1 mM putrescine; Romijn, H. J., van Huizen, F., Wolters, P. S. (1984) Towards an improved serum-free, chemically defined medium for long-term culturing of cerebral cortex tissue. Neurosci. Behav. Rev., 8:301-334). Acute and prolonged pretreatment of the, cultures was essentially as described previously (Pauwels et al., 1992). Drugs were dissolved, and diluted in 10% or 1% hydroxypropyl-β-cyclodextrin such that the final concentrations of the solvent in the acute and chronic exposures were 0.1% and 0.01% respectively. Compound A as used in the following examples is [(RRSR)+(RRRS)+(SSSR) +(SSRS)]-α-[[[2-(chroman-2-yl)-2-hydroxy-ethyl]amino]methyl]-6-hydroxy-2-chromanmethanol ethanedioate (1:1).
For acute treatment, drug, or solvent was added to the cultures on day 7. After 20 min the medium was replaced with 200 μl chemically defined DMEM medium (the same composition of CDM-R12 medium but without Ham's F12) (control), or chemically defined DMEM medium containing the oxidative stress trigger. Oxidative stress triggers used were 1 mM sodium nitroprusside (SNP, a nitric oxide radical generating compound), or 7.5-10 mM diethyldithiocarbamate (DDTC, a superoxide dismutase inhibitor) and the test compound.
For prolonged pretreatment experiments, drug (concentration range 0.1 nM-10 μM) was added to the serum-free medium on days 1 and 4 of the culture. On day 7, the cultures were washed once with DMEM, and incubated with 0.2 ml chemically defined DMEM medium for 2 h at 37° C. The cells were washed and the medium was replaced by 0.2 ml chemically defined DMEM medium (control), or chemically defined DMEM medium containing the oxidative stress trigger (se above).
For both the acute experiment and the prolonged pretreatment experiment, extracellular and intracellular LDH (lactate dehydrogenase) activities were measured spectrophotometrically at 340 nm with an EPOS Analyzer 5060, according to the method of Bergmeyer (Bergmeyer, H. U. (1974) Biochemical reagents. In: Methods of Enzymatic Analysis. H. U. Bergmeyer, eds. Academic Press, New York, 2nd Ed., pp. […]). Extracellular LDH activity in the culture medium and cytoplasmic LDH activity measured after lysis of the cells in 1 ml H2 O, were used to calculate total LDH activity and % released LDH. % Neuroprotection refers to % inhibition of LDH release, where oxidative stress trigger-induced LDH release is defined as 0% protection, and basal (control) level of LDH release is defined as 100% protection.
Neuronal primary hippocampal cultures were grown in CDM-R12 medium for 7 days. Test compounds were either administered on days 1 and 4 of culture (prolonged pretreatment) or on day 7 of culture (acute treament). […]

[3] = DDTC trigger, prolonged pretreatment
[4] = SNP trigger, prolonged pretreatment

Compound	glutamate-mediated increase in peroxidation [1]	Intracellular peroxides (mean ± SD, n) [1]	inhibition at 1 µM ([2]; DDTC trigger, acute treatment)	inhibition at 0.1 µM ([2]; DDTC trigger, acute treatment)	inhibition at 1 µM [2, 3]	inhibition at 0.1 µM [2, 3]	inhibition at 1 µM ([2]; SNP trigger, acute treatment)	inhibition at 0.1 µM ([2]; SNP trigger, acute treatment)	inhibition at 1 µM [2, 4]	inhibition at 0.1 µM [2, 4]	neuroprotection against DDTC or SNP [2]
O[C@H](CNC[C@@H](O)[C@H]1CCc2cc(F)ccc2O1)[C@@H]1CCc2cc(F)ccc2O1 (relative stereo) [nebivolol, (RSSS) and (SRRR) α,α'-iminobis(methylene)bis[6-fluoro-2-chroman-methanol]]	inhibited the glutamate-mediated increase in peroxidation	155 ± 13 Relative fluorescence units/μg	29 ± 16%	32 ± 28%	37 ± 23%	< 25%	< 25%	< 25%	36 ± 18%	26 ± 13%	can confer neuroprotection
Oc1ccc2c(c1)CCC(C(O)CNCC(O)C1CCc3ccccc3O1)O2 (stereo not drawn) [Compound A, [(RRSR)+(RRRS)+(SSSR) +(SSRS)]-α-[[[2-(chroman-2-yl)-2-hydroxy-ethyl]amino]methyl]-6-hydroxy-2-chromanmethanol ethanedioate (1:1)]	inhibited the glutamate-mediated increase in peroxidation	137 ± 8 Relative fluorescence units/μg	30 ± 28%	35 ± 32%	< 25%	< 25%	< 25%	< 25%	38%	39 ± 13%	can confer neuroprotection
